Measured values reported in ChEMBL document CHEMBL4483862, “Open-source discovery of chemical leads for next-generation chemoprotective antimalarials” (2018).

Test system: Plasmodium berghei
Test: Luciferase/luciferin-expressing antifolate-resistant parasites were used to infect a culture of HepG2 cells that were pre-incubated with compounds. Infected hepatocytes emit light due to the luciferase reaction. Assay results are presented as the percent inhibition of light emission compared to control. […]
Type: functional
Conditions: sporozoite; for IC90: read-out: LUCIFERASE INFECTION ASSAY - IC90

With C=CCCC(=O)Nc1ccc(Br)cn1 the IC50 (HEPG2TOX_HILL_SLOPE 2.37, HEPG2TOX_R_SQUARED 0.964, PBLUC_HILL_SLOPE 2.08, PBLUC_R_SQUARED 0.0582, read-out: LUCIFERASE INFECTION ASSAY - IC50) was 5.2 µM and the IC90 was > 12.9 µM.

For Cn1cccc1C(=O)Nc1nc(-c2ccccn2)cs1, the IC50 (HEPG2TOX_HILL_SLOPE 2.43, HEPG2TOX_R_SQUARED 0.643, PBLUC_HILL_SLOPE 14.5, PBLUC_R_SQUARED 0.519, read-out: LUCIFERASE INFECTION ASSAY - IC50) was 3.47 µM and the IC90 was 4.04 µM.

Cc1c(-c2ccccc2)sc2ncnc(NCc3nnc4ccccn34)c12 was tested, and the IC50 (HEPG2TOX_HILL_SLOPE 2.41, HEPG2TOX_R_SQUARED 0.925, PBLUC_HILL_SLOPE 1.56, PBLUC_R_SQUARED 0.71, read-out: LUCIFERASE INFECTION ASSAY - IC50) was 2.86 µM and the IC90 was > 10 µM.

Compound Clc1ccc2[nH]cc(CCNc3nc(Cl)nc4nc[nH]c34)c2c1 has an IC50 (HEPG2TOX_HILL_SLOPE 2.4, HEPG2TOX_R_SQUARED 0.982, PBLUC_HILL_SLOPE 2.19, PBLUC_R_SQUARED 0.753, read-out: LUCIFERASE INFECTION ASSAY - IC50) of 0.22 µM and an IC90 of 0.6 µM.

In the case of Cc1sc(NC(=O)c2ccc(Cn3cncn3)cc2)nc1-c1ccc(Br)cc1, the IC50 (HEPG2TOX_HILL_SLOPE 2.39, HEPG2TOX_R_SQUARED 0.794, PBLUC_HILL_SLOPE 2.3, PBLUC_R_SQUARED 0.342, read-out: LUCIFERASE INFECTION ASSAY - IC50) is reported as > 10 µM and the IC90 is reported as > 10 µM.

Compound Cc1cn2c(/C=c3\s/c(=C\C(=O)c4ccccc4C)n(C)c3=O)c(C)nc2s1 has an IC50 (HEPG2TOX_HILL_SLOPE 2.41, HEPG2TOX_R_SQUARED 0.966, PBLUC_HILL_SLOPE 72.2, PBLUC_R_SQUARED 0.61, read-out: LUCIFERASE INFECTION ASSAY - IC50) of 0.6 µM and an IC90 of 0.619 µM.

In the case of CCC1CCc2sc(C(=O)NNC(=O)c3cnccn3)cc2C1 (centres undefined), the IC50 (HEPG2TOX_HILL_SLOPE 2.38, HEPG2TOX_R_SQUARED 0.712, PBLUC_HILL_SLOPE 3.73, PBLUC_R_SQUARED 0.532, read-out: LUCIFERASE INFECTION ASSAY - IC50) is reported as 6.76 µM and the IC90 is reported as > 10 µM.

With CC(C)(C)CNC(=S)N/N=C/c1cc(Cl)cc(Cl)c1O the IC50 (HEPG2TOX_HILL_SLOPE 2.41, HEPG2TOX_R_SQUARED 0.728, PBLUC_HILL_SLOPE 9.45, PBLUC_R_SQUARED 0.267, read-out: LUCIFERASE INFECTION ASSAY - IC50) was 9.07 µM and the IC90 was > 9.87 µM.

COc1ccc(C(=O)C(/C=N/N)=N/Nc2cc(C)cc(C)c2)cc1 showed an IC50 (HEPG2TOX_HILL_SLOPE 2.41, HEPG2TOX_R_SQUARED 0.984, PBLUC_HILL_SLOPE 5.05, PBLUC_R_SQUARED 0.51, read-out: LUCIFERASE INFECTION ASSAY - IC50) of 3.87 µM and an IC90 of 5.98 µM.

With O=S(=O)(c1ccc(Cl)s1)N1CCN(c2ncnc3ccccc23)CC1 the IC50 (HEPG2TOX_HILL_SLOPE 2.41, HEPG2TOX_R_SQUARED 0.894, PBLUC_HILL_SLOPE 2.42, PBLUC_R_SQUARED 0.407, read-out: LUCIFERASE INFECTION ASSAY - IC50) was 4.98 µM and the IC90 was > 10 µM.

With O=C(Nc1ccccc1)Nc1cc(NC(=O)Nc2ccccc2)cc(C(F)(F)F)c1 the IC50 (HEPG2TOX_HILL_SLOPE 2.43, HEPG2TOX_R_SQUARED 0.913, read-out: LUCIFERASE INFECTION ASSAY - IC50) was > 7.96 µM and the IC90 was > 7.96 µM.

In the case of Cc1cc(O)c(/C=N/Nc2ncc(C(F)(F)F)cc2Cl)c(=O)o1, the IC50 (HEPG2TOX_HILL_SLOPE 2.38, HEPG2TOX_R_SQUARED 0.982, PBLUC_HILL_SLOPE 7.99, PBLUC_R_SQUARED 0.344, read-out: LUCIFERASE INFECTION ASSAY - IC50) is reported as 7.73 µM and the IC90 is reported as > 9.49 µM.

CN(CC(=O)Nc1ccc(OC(F)(F)F)cc1)Cc1cc([N+](=O)[O-])ccc1O was tested, and the IC50 (HEPG2TOX_HILL_SLOPE 2.38, HEPG2TOX_R_SQUARED 0.828, PBLUC_HILL_SLOPE 9.41, PBLUC_R_SQUARED 0.824, read-out: LUCIFERASE INFECTION ASSAY - IC50) was 2.64 µM and the IC90 was 3.33 µM.

O=C(c1cccs1)c1c(-c2ccccc2)cc2ccccn12 gave an IC50 (HEPG2TOX_HILL_SLOPE 2.42, HEPG2TOX_R_SQUARED 0.887, PBLUC_HILL_SLOPE 12.4, 11.2, PBLUC_R_SQUARED 0.720, 0.734, read-out: LUCIFERASE INFECTION ASSAY - IC50) of 3.1 µM and an IC90 of 3.73 µM.

For Cc1ccc(/C(C#N)=C/c2ccc3c(c2)OCO3)cc1, the IC50 (HEPG2TOX_HILL_SLOPE 2.41, HEPG2TOX_R_SQUARED 0.881, PBLUC_HILL_SLOPE 2.57, PBLUC_R_SQUARED 0.299, read-out: LUCIFERASE INFECTION ASSAY - IC50) was 9.11 µM and the IC90 was > 12.5 µM.

Cc1cc(Br)c(NC(=S)NC(=O)C(C)(C)C)c(Br)c1 was tested, and the IC50 (HEPG2TOX_HILL_SLOPE 2.38, HEPG2TOX_R_SQUARED 0.209, read-out: LUCIFERASE INFECTION ASSAY - IC50) was > 8.09 µM and the IC90 was > 8.09 µM.

In the case of CC(=O)Nc1nc(C(=O)Nc2ccc(Nc3ccccc3)cc2)cs1, the IC50 (HEPG2TOX_HILL_SLOPE 2.43, HEPG2TOX_R_SQUARED 0.519, PBLUC_HILL_SLOPE 2.7, PBLUC_R_SQUARED 0.347, read-out: LUCIFERASE INFECTION ASSAY - IC50) is reported as 4.68 µM and the IC90 is reported as > 10 µM.

COc1ccc(-c2cnc3cnc(-c4cc(OC)cc(OC)c4)cn23)cc1 showed an IC50 (HEPG2TOX_HILL_SLOPE 2.43, HEPG2TOX_R_SQUARED 0.949, PBLUC_HILL_SLOPE 13, PBLUC_R_SQUARED 0.663, read-out: LUCIFERASE INFECTION ASSAY - IC50) of 3.06 µM and an IC90 of 3.63 µM.

CNc1ccc2ncc(-c3ccccc3)n2n1 gave an IC50 (HEPG2TOX_HILL_SLOPE 2.41, HEPG2TOX_R_SQUARED 0.973, PBLUC_HILL_SLOPE 2.77, PBLUC_R_SQUARED 0.442, read-out: LUCIFERASE INFECTION ASSAY - IC50) of 6.15 µM and an IC90 of 13.6 µM.

Compound CCOC(=O)c1sc(N)c(C#N)c1COC(=O)C1(c2cccc(F)c2)CCCC1 has an IC50 (HEPG2TOX_HILL_SLOPE 2.42, HEPG2TOX_R_SQUARED 0.924, PBLUC_HILL_SLOPE 2.7, PBLUC_R_SQUARED 0.388, read-out: LUCIFERASE INFECTION ASSAY - IC50) of 3.67 µM and an IC90 of 8.29 µM.

Cc1cccc(C)c1NC(=S)NC1CC(C)CC(C)(C)C1 (centres undefined) showed an IC50 (HEPG2TOX_HILL_SLOPE 2.42, HEPG2TOX_R_SQUARED 0.462, PBLUC_HILL_SLOPE 8.54, PBLUC_R_SQUARED 0.744, read-out: LUCIFERASE INFECTION ASSAY - IC50) of 4.25 µM and an IC90 of 5.5 µM.

O=C(Nc1nc2ccccc2[nH]1)c1ccoc1 was tested, and the IC50 (HEPG2TOX_HILL_SLOPE 2.41, HEPG2TOX_R_SQUARED 0.931, read-out: LUCIFERASE INFECTION ASSAY - IC50) was > 10 µM and the IC90 was > 10 µM.

CC(=O)Nc1cccc(-c2ccc3ncc(-c4ccc5c(c4)OCO5)n3n2)c1 gave an IC50 (HEPG2TOX_HILL_SLOPE 2.37, HEPG2TOX_R_SQUARED 0.964, PBLUC_HILL_SLOPE 13.4, PBLUC_R_SQUARED 0.492, read-out: LUCIFERASE INFECTION ASSAY - IC50) of 3.34 µM and an IC90 of 3.94 µM.

Compound CC(=O)O[C@H]1CC[C@]23C(=O)O[C@]45CC[C@H](C6=CC(=O)OC6)[C@@]4(C)CCC2C5CC[C@]3(O)C1 has an IC50 (HEPG2TOX_HILL_SLOPE 2.43, HEPG2TOX_R_SQUARED 0.931, PBLUC_HILL_SLOPE 2.64, PBLUC_R_SQUARED 0.666, read-out: LUCIFERASE INFECTION ASSAY - IC50) of 0.325 µM and an IC90 of 0.747 µM.

With Clc1ccc2c(c1)C(Nc1ccc3nnnn3n1)CCS2 (centres undefined) the IC50 (HEPG2TOX_HILL_SLOPE 2.38, HEPG2TOX_R_SQUARED 0.171, read-out: LUCIFERASE INFECTION ASSAY - IC50) was > 10 µM and the IC90 was > 10 µM.

For C=CCNC(=O)NC(=O)CSc1nnc(-c2ccc(OC)cc2)n1-c1cccc(C(F)(F)F)c1, the IC50 (HEPG2TOX_HILL_SLOPE 2.39, HEPG2TOX_R_SQUARED 0.903, PBLUC_HILL_SLOPE 3.60, 2.97, PBLUC_R_SQUARED 0.951, 0.459, read-out: LUCIFERASE INFECTION ASSAY - IC50) was 3.56 µM and the IC90 was 6.91 µM.

COc1ccc(Nc2c(Cl)cc(OC)cc2Cl)cc1 gave an IC50 (HEPG2TOX_HILL_SLOPE 2.37, HEPG2TOX_R_SQUARED 0.991, PBLUC_HILL_SLOPE 4.31, PBLUC_R_SQUARED 0.544, read-out: LUCIFERASE INFECTION ASSAY - IC50) of 2.31 µM and an IC90 of 3.85 µM.

Clc1ccccc1Nc1cc2c(cn1)ncn2Cc1ccco1 was tested, and the IC50 (HEPG2TOX_HILL_SLOPE 2.43, HEPG2TOX_R_SQUARED 0.709, PBLUC_HILL_SLOPE 4.59, PBLUC_R_SQUARED 0.452, read-out: LUCIFERASE INFECTION ASSAY - IC50) was 7.52 µM and the IC90 was > 10 µM.

With CCn1nc(C(=O)NCc2ccc(OC)cc2)c2c1CCN(C(=O)C1Cc3ccccc3O1)C2 (centres undefined) the IC50 (HEPG2TOX_HILL_SLOPE 2.42, HEPG2TOX_R_SQUARED 0.906, PBLUC_HILL_SLOPE 2.97, PBLUC_R_SQUARED 0.096, read-out: LUCIFERASE INFECTION ASSAY - IC50) was 2.98 µM and the IC90 was 6.24 µM.

c1ccc(SCc2ccc(-c3nc4ccccc4s3)cc2)nc1 was tested, and the IC50 (HEPG2TOX_HILL_SLOPE 2.39, HEPG2TOX_R_SQUARED 0.939, PBLUC_HILL_SLOPE 0.884, PBLUC_R_SQUARED 0.644, read-out: LUCIFERASE INFECTION ASSAY - IC50) was 0.71 µM and the IC90 was 8.53 µM.

Compound COc1cc(OC)cc(-c2cn3c(-c4ccc5ncccc5c4)cnc3cn2)c1 has an IC50 (HEPG2TOX_HILL_SLOPE 2.4, HEPG2TOX_R_SQUARED 0.938, PBLUC_HILL_SLOPE 4.1, PBLUC_R_SQUARED 0.34, read-out: LUCIFERASE INFECTION ASSAY - IC50) of 3.6 µM and an IC90 of 6.15 µM.

With Cn1nc(-c2ccccc2)c(-c2nc3ccccc3n2C)c1-c1ccccc1 the IC50 (HEPG2TOX_HILL_SLOPE 2.41, HEPG2TOX_R_SQUARED 0.613, PBLUC_HILL_SLOPE 4.44, PBLUC_R_SQUARED 0.302, read-out: LUCIFERASE INFECTION ASSAY - IC50) was 5.47 µM and the IC90 was 8.97 µM.
